The numbers were not newly measured in patent EP0497915B1, “hPTH (1-37) FRAGMENT, ITS PRODUCTION, DRUG CONTAINING IT AND ITS USE” (HaemoPep Pharma GmbH, priority 1989, dated 1991), which cites them from elsewhere.

The subject of one data set is hPTH-(44-68)-RIA. To be noted: commercial RIA (Immundiagnostik), manufacturer's data.
Another data set deals with hPTH-(53-84)-RIA. To be noted: commercial RIA (Immundiagnostik), manufacturer's data.

Turning to “hPTH-(53-84): synthetisches hPTH-Peptid, Standard des C-terminalen RIA (KKEDNVLVESHEKSLGEADKADVNVLTKAKSQ; Parathyroid hormone; UniProt P01270 84-115, looked up, fragment)”, the “Kreuzreaktion im hPTH-(44-68)-RIA” value in the data set with hPTH-(44-68)-RIA is 100%.

Turning to “hPTH-(28-48): synthetisches hPTH-Peptid (LQDVHNFVALGAPLAPRDAGS; Parathyroid hormone; UniProt P01270 59-79, looked up, fragment)”, in the data set with hPTH-(44-68)-RIA, the “Kreuzreaktion im hPTH-(44-68)-RIA” value was “keine Kreuzreaktion”. In addition, the “Kreuzreaktion im hPTH-(53-84)-RIA” value with hPTH-(53-84)-RIA is “keine Kreuzreaktion”. Consider “hPTH-(64-84): synthetisches hPTH-Peptid (EKSLGEADKADVNVLTKAKSQ; Parathyroid hormone; UniProt P01270 95-115, looked up, fragment)”, for which the “Kreuzreaktion im hPTH-(44-68)-RIA” value in the data set on hPTH-(44-68)-RIA is recorded as “keine Kreuzreaktion”. In the data set on hPTH-(53-84)-RIA, the “Kreuzreaktion im hPTH-(53-84)-RIA” value is recorded as 100%. Consider “hPTH-(1-34): bekanntes synthetisches N-terminales hPTH-Fragment (SVSEIQLMHNLGKHLNSMERVEWLRKKLQDVHNF; Parathyroid hormone; UniProt P01270 32-65, looked up, fragment)”, for which, in the data set with hPTH-(44-68)-RIA, the “Kreuzreaktion im hPTH-(44-68)-RIA” value was “keine Kreuzreaktion”. In the data set on hPTH-(53-84)-RIA, the “Kreuzreaktion im hPTH-(53-84)-RIA” value is “keine Kreuzreaktion”. For “hPTH-(44-68): synthetisches hPTH-Peptid, Standard des mittelregionalen RIA (RDAGSQRPRKKEDNVLVESHEKSLG; Parathyroid hormone; UniProt P01270 75-99, looked up, fragment)”, in the data set on hPTH-(53-84)-RIA, the “Kreuzreaktion im hPTH-(53-84)-RIA” value was “keine Kreuzreaktion”.

B1: hPTH-(1-84): sezerniertes PTH-Molekül aus 84 Aminosäuren (peptide, UniProt P01270 32-115, looked up)
Parathyroid hormone: SVSEIQLMHNLGKHLNSMERVEWLRKKLQDVHNFVALGAPLAPRDAGSQRPRKKEDNVLVESHEKSLGEADKADVNVLTKAKSQ
modifications: Parathyroid hormone
notes: sezerniertes PTH-Molekül aus 84 Aminosäuren
Consider B1, for which, in the data set on hPTH-(44-68)-RIA, the “Kreuzreaktion im hPTH-(44-68)-RIA” value is 100%. In addition, the “Kreuzreaktion im hPTH-(53-84)-RIA” value in the data set with hPTH-(53-84)-RIA is recorded as 100%.
